Here are results for 34 compounds from PubChem BioAssay AID651650 (Sanford-Burnham Center for Chemical Genomics, 2012).

The experiment has as its target Neuropilin-1 (Homo sapiens) (UniProt O14786). The experiment is described as follows: blockers of CendR peptide binding to NRP-1 – biochemical, FP and AlphaScreen panel, dose response (AID 651650). The following applies: NRP-1 b1b2 / RPARPAR peptide binding, FP or AlphaScreen. Background: Bead proximity is the source of the signal in Alpha formats.
The mark [1] stands for this setting: AlphaScreen, run 1, individual panel run IC50.
The mark [2] stands for this setting: FP, run 1, individual panel run IC50.
Where [3] appears, read: FP, run 2, individual panel run IC50.

SMILES strings stand for the structures. The source made the active and inactive calls.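 The calls were made as follows: active = mean IC50 below 20 µM in each of the two panels, so potent in both; inactive = the rest.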

Sequence of Neuropilin-1 (Homo sapiens) (O14786 whole entry, looked up): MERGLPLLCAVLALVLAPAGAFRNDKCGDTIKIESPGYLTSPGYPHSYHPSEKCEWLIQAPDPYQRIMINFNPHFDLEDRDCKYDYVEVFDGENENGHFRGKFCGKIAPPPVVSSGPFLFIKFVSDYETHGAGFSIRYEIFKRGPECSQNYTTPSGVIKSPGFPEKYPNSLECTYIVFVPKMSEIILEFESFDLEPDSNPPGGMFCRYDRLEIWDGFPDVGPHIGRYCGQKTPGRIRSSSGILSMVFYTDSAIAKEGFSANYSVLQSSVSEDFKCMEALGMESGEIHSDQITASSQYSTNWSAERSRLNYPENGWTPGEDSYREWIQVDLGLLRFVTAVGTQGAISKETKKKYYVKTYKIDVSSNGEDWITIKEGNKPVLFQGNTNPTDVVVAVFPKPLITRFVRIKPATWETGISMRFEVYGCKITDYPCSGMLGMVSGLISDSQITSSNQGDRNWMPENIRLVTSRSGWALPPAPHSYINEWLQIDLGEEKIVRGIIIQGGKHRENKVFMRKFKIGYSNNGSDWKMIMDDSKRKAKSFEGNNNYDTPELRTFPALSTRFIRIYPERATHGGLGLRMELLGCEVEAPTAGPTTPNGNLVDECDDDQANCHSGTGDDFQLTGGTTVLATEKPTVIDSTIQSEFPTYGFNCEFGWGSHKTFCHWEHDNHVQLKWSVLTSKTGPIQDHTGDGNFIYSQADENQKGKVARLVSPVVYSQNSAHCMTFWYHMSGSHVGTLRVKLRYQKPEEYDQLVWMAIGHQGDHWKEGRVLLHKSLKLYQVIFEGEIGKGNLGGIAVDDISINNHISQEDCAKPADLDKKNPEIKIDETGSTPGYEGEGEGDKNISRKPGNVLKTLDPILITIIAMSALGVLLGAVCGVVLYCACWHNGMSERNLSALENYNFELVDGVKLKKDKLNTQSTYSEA

What is called IC50 is the concentration needed to halve the response being measured. In the case of `COc1ccc(Cn2c(C3CC3)nc3ccc(NC(=O)c4cccnc4)cc3c2=O)cc1`, the IC50 result (AlphaScreen, mean of runs) is “inactive”. The half-inhibitory concentration (IC50) under setting [1] amounted to 31.7 µM; the IC50 (FP, mean of runs) was > 95 µM (inactive); the half-maximal inhibitory concentration (IC50) under setting [2] was greater than 95 µM; the IC50 under setting [3] is greater than 95 µM.
Consider `CCOC(=O)N1CCN(C(=O)Nc2ccc3nc(C)c(C)nc3c2)CC1`, for which the IC50 was > 100 µM (inactive) (AlphaScreen, mean of runs); greater than 100 µM under setting [1]; > 95 µM (inactive) (FP, mean of runs); greater than 95 µM under setting [2]; greater than 95 µM under setting [3].
For the compound `N=C1C(=O)OCC1c1cc(Cl)ccc1NC(=O)Nc1ccccc1` (stereo not given), the IC50 result (AlphaScreen, mean of runs) was “inactive”. Also, the IC50 by setting is: under setting [1], 90.5 µM; (FP, mean of runs) > 95 µM (inactive); under setting [2], greater than 95 µM; under setting [3], greater than 95 µM.
In the case of `Cc1[nH]n(-c2ccccc2)c(=S)c1C=Nc1cccc([N+](=O)[O-])c1`, the IC50 (AlphaScreen, mean of runs) was > 100 µM (inactive); the IC50 under setting [1] was greater than 100 µM; the IC50 (FP, mean of runs) is > 95 µM (inactive); the concentration for half-maximal inhibition (IC50) under setting [2] is greater than 95 µM; the half-maximal inhibitory concentration (IC50) under setting [3] was greater than 95 µM.
For the compound `NC(=O)c1c(NC(=O)C(=O)N2CCOCC2)sc2c1CCCC2`, the IC50 was > 100 µM (inactive) (AlphaScreen, mean of runs); greater than 100 µM under setting [1]; > 95 µM (inactive) (FP, mean of runs); greater than 95 µM under setting [2]; greater than 95 µM under setting [3].
Regarding `O=c1ccsn1Cc1ccccc1`, the IC50 is, setting by setting: (AlphaScreen, mean of runs) > 100 µM (inactive); under setting [1], greater than 100 µM; (FP, mean of runs) > 95 µM (inactive); under setting [2], greater than 95 µM; under setting [3], greater than 95 µM.
In the case of `Cc1cccc(CN2CCN(C3CN(Cc4cn(Cc5cccc(Cl)c5)nn4)S(=O)(=O)C3)CC2)c1` (stereo not given), the IC50 (AlphaScreen, mean of runs) was > 100 µM (inactive); the IC50 under setting [1] is greater than 100 µM; the IC50 (FP, mean of runs) is > 95 µM (inactive); the IC50 under setting [2] was greater than 95 µM; the concentration for half-maximal inhibition (IC50) under setting [3] was greater than 95 µM.
As for `CC(O)(c1cccnc1)c1nc(/C=C/c2ccccc2)cs1` (stereo not given), the IC50 reads like this: (AlphaScreen, mean of runs) > 100 µM (inactive); under setting [1], greater than 100 µM; (FP, mean of runs) > 95 µM (inactive); under setting [2], greater than 95 µM; under setting [3], greater than 95 µM.
With `O=C(CSc1nc2ccc(Cl)cc2[nH]1)NCCc1ccccc1`, the IC50 (AlphaScreen, mean of runs) was > 100 µM (inactive); the half-maximal inhibitory concentration (IC50) under setting [1] was greater than 100 µM; the IC50 (FP, mean of runs) was > 95 µM (inactive); the IC50 under setting [2] was greater than 95 µM; the IC50 under setting [3] is greater than 95 µM.
For the compound `C=C1CCN([C@@H](CC(C)C)C(=O)NCc2ccccc2)S(=O)(=O)c2ccccc21`, the IC50 reads like this: (AlphaScreen, mean of runs) > 100 µM (inactive); under setting [1], greater than 100 µM; (FP, mean of runs) > 95 µM (inactive); under setting [2], greater than 95 µM; under setting [3], greater than 95 µM.
Take `C/C(=N\N=c1/sc2ccccc2n1C)c1ccccn1`: the IC50 was > 100 µM (inactive) (AlphaScreen, mean of runs); greater than 100 µM under setting [1]; > 95 µM (inactive) (FP, mean of runs); greater than 95 µM under setting [2]; greater than 95 µM under setting [3].
As to `COc1ccc(C(=O)N[C@H](C(=O)Nc2nc3c(s2)CCCC3)C(C)C)cc1`, the IC50 reads like this: (AlphaScreen, mean of runs) > 100 µM (inactive); under setting [1], greater than 100 µM; (FP, mean of runs) > 95 µM (inactive); under setting [2], greater than 95 µM; under setting [3], greater than 95 µM.
Consider `Clc1nc(-c2ccccn2)nc2scc(-c3ccccc3)c12`, for which the IC50 (AlphaScreen, mean of runs) was > 100 µM (inactive); the half-inhibitory concentration (IC50) under setting [1] was greater than 100 µM; the IC50 (FP, mean of runs) is > 95 µM (inactive); the half-inhibitory concentration (IC50) under setting [2] was greater than 95 µM; the IC50 under setting [3] was greater than 95 µM.
In the case of `NNc1ncnc2c1cnn2-c1ccccc1`, the IC50 (AlphaScreen, mean of runs) is > 100 µM (inactive); the concentration for half-maximal inhibition (IC50) under setting [1] was greater than 100 µM; the IC50 (FP, mean of runs) was > 95 µM (inactive); the half-inhibitory concentration (IC50) under setting [2] is greater than 95 µM; the IC50 under setting [3] is greater than 95 µM.
Take `O=C(Cc1ccc(F)cc1)N1CCN=C1SCc1ccc([N+](=O)[O-])cc1`: the IC50 was > 100 µM (inactive) (AlphaScreen, mean of runs); greater than 100 µM under setting [1]; > 95 µM (inactive) (FP, mean of runs); greater than 95 µM under setting [2]; greater than 95 µM under setting [3].
Turning to `C[C@@H](NC(=O)c1[nH]cnc1C(=O)Nc1cccc(Cl)c1)c1ccccc1`, the IC50 entry (AlphaScreen, mean of runs) was “inactive”. Further, the IC50 under setting [1] amounted to 21.8 µM; the IC50 (FP, mean of runs) is > 95 µM (inactive); the IC50 under setting [2] is greater than 95 µM; the 50% inhibitory concentration (IC50) under setting [3] was greater than 95 µM.
Regarding `CC(C)C(N)c1csc(NC(=O)Nc2cccc(C(F)(F)F)c2)n1` (stereo not given), the IC50 reads like this: (AlphaScreen, mean of runs) > 100 µM (inactive); under setting [1], greater than 100 µM; (FP, mean of runs) > 95 µM (inactive); under setting [2], greater than 95 µM; under setting [3], greater than 95 µM.
Regarding `Cc1ccc(NC(=O)COc2ncnc3c(Cl)cc(Cl)cc23)cc1[N+](=O)[O-]`, the IC50 is, setting by setting: (AlphaScreen, mean of runs) > 100 µM (inactive); under setting [1], greater than 100 µM; (FP, mean of runs) > 95 µM (inactive); under setting [2], greater than 95 µM; under setting [3], greater than 95 µM.
Turning to `CC(=O)OC[C@@H]1CN(Cc2cccc(C(F)(F)F)c2)C[C@H](n2cnc3c(NCc4ccco4)ncnc32)O1`, where the note is “AlphaScreen, mean of runs”, the IC50 entry was “inactive”. Besides, the half-maximal inhibitory concentration (IC50) reads like this: under setting [1], 87.9 µM; (FP, mean of runs) > 95 µM (inactive); under setting [2], greater than 95 µM; under setting [3], greater than 95 µM.
For the compound `O=C(Nc1cccc(C(F)(F)F)c1)C1Cc2c(-c3cccc(F)c3)ccnc2O1` (stereo not given), the IC50 reads like this: (AlphaScreen, mean of runs) > 100 µM (inactive); under setting [1], greater than 100 µM; (FP, mean of runs) > 95 µM (inactive); under setting [2], greater than 95 µM; under setting [3], greater than 95 µM.
Consider `COc1ccc(CN2C(=O)c3ccccc3C2=O)cc1C(=O)Nc1ccccc1N1CCOCC1`, for which the IC50 runs as follows: (AlphaScreen, mean of runs) > 100 µM (inactive); under setting [1], greater than 100 µM; (FP, mean of runs) > 95 µM (inactive); under setting [2], greater than 95 µM; under setting [3], greater than 95 µM.
On to `Cc1ccccc1S(=O)(=O)Nc1nc2ccccc2nc1NCCO`, for which the IC50 is, setting by setting: (AlphaScreen, mean of runs) > 100 µM (inactive); under setting [1], greater than 100 µM; (FP, mean of runs) > 95 µM (inactive); under setting [2], greater than 95 µM; under setting [3], greater than 95 µM.
Take `Cc1cccc(NC(=O)c2ccc(OCc3c(C)noc3C)cc2)c1`: the IC50 is 17.8 µM (AlphaScreen, mean of runs); 17.8 µM under setting [1]; > 95 µM (inactive) (FP, mean of runs); greater than 95 µM under setting [2]; greater than 95 µM under setting [3].
`O=C(/C=C/c1ccco1)N/C(=C\c1ccccc1)C(=O)NCCc1nc2ccccc2[nH]1`: the IC50 runs as follows: (AlphaScreen, mean of runs) > 100 µM (inactive); under setting [1], greater than 100 µM; (FP, mean of runs) > 95 µM (inactive); under setting [2], greater than 95 µM; under setting [3], greater than 95 µM.
In the case of `Cc1ccc(C(=O)C2CN3CCC2CC3)cc1` (stereo not given), the IC50 reads like this: (AlphaScreen, mean of runs) > 100 µM (inactive); under setting [1], greater than 100 µM; (FP, mean of runs) > 95 µM (inactive); under setting [2], greater than 95 µM; under setting [3], greater than 95 µM.
On to `Cc1cc(C)n2c(Nc3ccc4c(c3)OCCO4)c(-c3ccccn3)nc2n1`, for which the IC50 runs as follows: (AlphaScreen, mean of runs) > 100 µM (inactive); under setting [1], greater than 100 µM; (FP, mean of runs) > 95 µM (inactive); under setting [2], greater than 95 µM; under setting [3], greater than 95 µM.
Turning to `CNC(=O)NC(=O)C(C)OC(=O)c1c(C)noc1C` (stereo not given), where the note is “AlphaScreen, mean of runs”, the IC50 entry is “inactive”. In addition, the IC50 was 82 µM under setting [1]; > 95 µM (inactive) (FP, mean of runs); greater than 95 µM under setting [2]; greater than 95 µM under setting [3].
Consider `CC(=NN(Cc1ccccc1)c1ccccc1)c1ccccc1`, for which, where the note is “AlphaScreen, mean of runs”, the IC50 entry is “inactive”. Moreover, the IC50 under setting [1] amounted to 41.3 µM; the IC50 (FP, mean of runs) is > 95 µM (inactive); the IC50 under setting [2] was greater than 95 µM; the half-maximal inhibitory concentration (IC50) under setting [3] is greater than 95 µM.
For `OCCCc1n[nH]c(=S)n1-c1ccccc1`, the IC50 reads like this: (AlphaScreen, mean of runs) > 100 µM (inactive); under setting [1], greater than 100 µM; (FP, mean of runs) > 95 µM (inactive); under setting [2], greater than 95 µM; under setting [3], greater than 95 µM.
Turning to `O=C1N[C@H](Cc2c[nH]c3ccccc23)COC(=O)[C@H](Cc2ccc(F)cc2)C/C=C\C[C@H]1CC(=O)N(CCO)Cc1ccccc1`, the IC50 by setting is: (AlphaScreen, mean of runs) 15 µM; under setting [1], 15 µM; (FP, mean of runs) > 95 µM (inactive); under setting [2], greater than 95 µM; under setting [3], greater than 95 µM.
Consider `COc1ccc(-c2csc(NCCc3nc4cc(C(=O)NCCCO)ccc4n3Cc3ccc(C)cc3)n2)cc1`, for which, for the setting “AlphaScreen, mean of runs”, the IC50 result was “inactive”. Moreover, the 50% inhibitory concentration (IC50) runs as follows: under setting [1], 27.6 µM; (FP, mean of runs) > 95 µM (inactive); under setting [2], greater than 95 µM; under setting [3], greater than 95 µM.
Turning to `O=C(OCn1nnc2ccccc2c1=O)c1ccc(Br)o1`, the IC50 runs as follows: (AlphaScreen, mean of runs) > 100 µM (inactive); under setting [1], greater than 100 µM; (FP, mean of runs) > 95 µM (inactive); under setting [2], greater than 95 µM; under setting [3], greater than 95 µM.
As for `COc1ccncc1-c1csc(C(O)c2ccccc2)n1` (stereo not given), the IC50 is > 100 µM (inactive) (AlphaScreen, mean of runs); greater than 100 µM under setting [1]; > 95 µM (inactive) (FP, mean of runs); greater than 95 µM under setting [2]; greater than 95 µM under setting [3].
`O=S1(=O)CCOC[C@H](Cc2ccccc2)N1Cc1ccccc1F`: the IC50 was > 100 µM (inactive) (AlphaScreen, mean of runs); greater than 100 µM under setting [1]; > 95 µM (inactive) (FP, mean of runs); greater than 95 µM under setting [2]; greater than 95 µM under setting [3].
